Data reported in patent US8314140B2, “4-hydroxythiobenzamide derivatives of drugs” (Antibe Therapeutics Inc., priority 2006, dated 2012).
Entries after “also recorded” stand apart in the source; their conditions may differ.

Assays:
human platelet cAMP = assay: Human platelet cAMP concentrations; type: cell-based; conditions: 3-100 μM, 10 minutes, IBMX 0.5 mM; versus vehicle; FIG. 21
Protocol: Platelet-rich plasma (PRP) was prepared as above. Aliquots of 400 μL of PRP were placed in glass tubes which contained IBMX (isobutyl-1-methylxanthine; 0.5 mM), an non-selective phosphodiesterase inhibitor. […] As a positive control, some aliquots of platelets were treated with forskolin (10 μM), a known stimulus of adenylate cyclase. Ten minutes later, the samples of PRP were centrifuged at 9,000 g for 2 min and the supernatant was discarded. The pellet was resuspended in buffer, sonicated for 2 min, then cAMP concentrations were determined using a specific enzyme-linked immunosorbent assay (Cayman Chemical Co., Ann Arbor, Mich., USA). Experiments were repeated 4-6 times for each concentration of each drug.

gastric damage [1] = assay: Gastric damage score 3 h after oral dosing; type: in vivo, rat; conditions: oral, 3 h; diclofenac 20 mg/kg or equimolar doses (Compound XVII 27.3 mg/kg, TBZ 7.3 mg/kg); FIG. 8
Excerpt: There were 5 rats in each group.
(§1) Each group consisted of 5 rats.

[2] = system: carrageenan-induced paw edema; assay: Carrageenan hindpaw edema model; type: in vivo, rat; conditions: oral 30 min prior to carrageenan; diclofenac 1, 3 or 10 mg/kg; Compound XVII equimolar to diclofenac 3 mg/kg; FIG. 14
Protocol: Male, Wistar rats weighing 175-200 g were given the test compounds orally 30 min prior to subplantar injection of 100 ul of 1% lambda carrageenan.

[3] = system: leukocyte adherence to the vascular endothelium; assay: Leukocyte adherence after NSAID or derivative, intravital microscopy (Example 21); type: in vivo, rat; conditions: comment on Table 2
Excerpt: (§2) Briefly, post-capillary mesenteric venules in anestheitized rats are examined under a light microscope.

gastric damage [4] = assay: Incidence of gastric damage at end of the leukocyte adherence experiment
Excerpt: as §2

gastric ulcers = assay: Healing of acetic acid-induced gastric ulcers; type: in vivo, rat; conditions: oral twice-daily for 4 days; 30 μmol/kg (naproxen, Compound XX 60 μmol/kg); FIG. 17
Protocol: Gastric ulcers were induced via serosal application of acetic acid, as described by Elliott et al., A nitric oxide-releasing nonsteroidal anti-inflammatory drug accelerates gastric ulcer healing in rats. […] After 4 days of such treatment, the rats were euthanized and the stomach was excised and photographed. The area (in mm^2) of the ulcer was determined planimetrically by an individual unaware of the treatments given to the rats.

[5] = H2S generation in buffer and liver homogenate (Example 24); type: in vitro ADME; conditions: 1 mM, FIG. 19
Protocol: Two ml of an assay reaction mixture was introduced in to ice-cold 250 μl of NaOH 0.1 N in a sealed 3-neck reactor. […] Incubations were lead with or without presence of 10% (w/v) liver homogenate and 2 mM pyridoxal 5′-phosphate. A constant stream of nitrogen was passed through the mixture via a gas-inlet capillary. […] Khan et al., 1980). Reactions were initiated by transferring the tube from ice bath to a 37° C. water bath. The stream of nitrogen carried the sulfide acid in the second reactor containing 2 ml of SAOB as described previously. After incubating at 37° C. for 90 minutes, 1 ml of 50% trichloroacetic acid solution was added to mixture to stop the reaction. […] The concentration of sulfide in SAOB solution was measured with a sulfide sensitive electrode as previously described (Ubuka, 2002; Khan et al., 1980).

visceral pain perception = assay: Rat model of visceral pain perception (colorectal distension, AWR score); type: in vivo; conditions: 0.8 mL colorectal distention; glibenclamide 10 mg/kg i.p. 30 min before; FIG. 3
Protocol: A rat model of visceral pain perception, a pre-clinical model of irritable bowel syndrome, was used in the following example. Rats (male, Wistar, 200-250 g, obtained from Charles River, Monza, Italy), were housed in plastic cages and maintained under controlled conditions with 12-hours light/dark cycle with lights on at 7.00 AM. Tap water and standard laboratory chow were freely available. Before experiments, rats were individually trained by spending 2-3 hours per day in a plexiglass cage for 2-3 days. It allowed them to adjust to a movement-restriction environment. Food was withheld for 12 hours before colorectal distension (CRD) recording were performed. Experiments were performed in awake rats and were conducted in a blind manner in that the observer was not aware of the identity of drug administered to each animal.
In the testing day, rats were sedated with ether inhalation and a 2 cm long latex balloon was inserted intrarectally 2 cm from the anal verge and fixed at the base of the tail. The balloon was connected via a double-barreled cannula to a pressure transducer to continuously monitoring the rectal pressure by a computer (PowerLab PC, A.D. Instruments, Milford, Mass., USA) and to a syringe for inflation/deflation of the balloon. The rats were then housed in a small cage (20×8×8 cm) on an elevated Plexiglas™ platform and allowed to wake up and adapt for 1 hour. After recovery from sedation, animals underwent the CRD procedure and behavioral responses were tested. The night before the experiments, the balloons were inflated and left overnight so the latex stretched and the balloons became compliant.
CRD of 20 seconds, performed every 5 minutes, was applied in increment of 0.4 ml starting from 0.4 ml up to 1.6 ml water. To achieve an accurate measurement of the colonic parameters and perception, the distensions were repeated twice for each intensity and data for each animal were averaged for analysis. Each animal underwent a double set of CRD. Twenty minutes after the first sequence of CRD (0.4 mL-1.6 ml water), drugs were administered intraperitoneally (i.p.) and a second set of CRD was performed. Behavioral responses during the first and the second set of CRD were assessed and compared.
Behavioral response to CRD was assessed by measuring the abdominal withdrawal reflex (AWR) using a semiquantitative score (1).
A rat model of visceral pain perception as described above was used to compare pain perception scores for 5-amino-2-(4-thiocarbamoyl-phenoxycarbonyloxy)-benzoic acid (Compound XXVII) with or without glibenclamide, an inhibitor of ATP-sensitive K^+ (KATP) channels.
Experiments were carried out as described in Example 13, except that groups of 5 rats each were treated with vehicle, trimebutine maleate (10 mg/kg), or with equimolar doses of trimebutine thiocarbamoylbenzoate (Compound III) or thiocarbamolybenzoate alone.

[6] = patients after usual doses; Dig. Dis. Sci. 1989; 34: 573-578; cited from earlier work
COX-2 = biological target: T1, COX-2 (Rattus norvegicus, UniProt P35355); assay: Rat airpouch assay, exudate PGE2 after zymosan; type: in vivo; conditions: 60 μmol/kg; versus vehicle; FIG. 15
T1 construct: from tissue; host or cells: rat subcutaneous airpouch exudate, in vivo, zymosan-induced
T1 sequence (P35355 18-604): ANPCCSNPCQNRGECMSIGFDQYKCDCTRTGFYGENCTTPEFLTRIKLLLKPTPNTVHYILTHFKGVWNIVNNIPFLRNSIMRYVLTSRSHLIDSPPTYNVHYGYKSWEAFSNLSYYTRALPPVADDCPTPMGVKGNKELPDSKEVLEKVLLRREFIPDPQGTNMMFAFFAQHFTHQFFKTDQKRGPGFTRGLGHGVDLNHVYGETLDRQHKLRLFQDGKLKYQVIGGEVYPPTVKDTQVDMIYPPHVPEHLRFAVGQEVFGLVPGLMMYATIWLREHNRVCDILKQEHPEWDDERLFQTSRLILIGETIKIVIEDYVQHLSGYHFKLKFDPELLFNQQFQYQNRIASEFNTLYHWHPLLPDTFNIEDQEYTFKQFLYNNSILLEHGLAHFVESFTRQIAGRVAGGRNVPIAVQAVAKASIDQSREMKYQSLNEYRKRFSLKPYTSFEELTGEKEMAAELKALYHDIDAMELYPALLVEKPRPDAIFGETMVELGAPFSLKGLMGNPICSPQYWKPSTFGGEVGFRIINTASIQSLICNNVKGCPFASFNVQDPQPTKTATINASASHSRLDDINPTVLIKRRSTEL
Protocol: Briefly, a subcutaneous “pouch” is created by repeated injections of air over several days. Once established, inflammation in the pouch can be induced by injection of 1 mL of 1% zymosan. […] Another group of 5 rats was treated with the vehicle, but received an injection of 0.9% sterile saline into the pouch rather than zymosan.
as §1

[7] = hypertensive rats, 60 μmol/kg intraperitoneal bolus, 60 minutes; FIG. 18

**Q.** Which “platelet cAMP” value (human platelet cAMP) does the source give for `CCC(C)(C)C(=O)O[C@H]1C[C@@H](C)C=C2C=C[C@H](C)[C@H](CC[C@H]3C[C@H](OC(=O)CCC(=O)Oc4ccc(C(N)=S)cc4)CC(=O)O3)[C@H]21` [Compound I, Succinic acid 2-{2-[8-(2,2-dimethyl-butyryloxy)-2,6-dimethyl-1,2,6,7,8,8a-hexahydro-naphthalen-1-yl]-ethyl}-6-oxo-tetrahydro-pyran-4-yl ester 4-thiocarbamoyl-phenyl ester] here?
**A.** significant increase in platelet cAMP at concentrations of 10, 30 and 100 μM

**Q.** For `NC(=S)c1ccc(OC(=O)Cc2ccccc2Nc2c(Cl)cccc2Cl)cc1` [Compound XVII, [2-(2,6-dichloro-phenylamino)-phenyl]-acetic acid 4-thiocarbamoyl-phenyl ester], which gastric damage score (gastric damage [1]) is on record?
**A.** no gastric damage; also recorded: significantly less gastric damage than diclofenac

**Q.** And the “paw edema (paw volume increase)” value [2]?
**A.** reduced paw edema to a greater extent; also recorded: comparable to the effect of diclofenac at a dose of 10 mg/kg

**Q.** What about the “number of adherent leukocytes compared to the parent drug alone” value [3] of the same compound?
**A.** significantly reduced the number of adherent leukocytes

**Q.** What about the “percent incidence of gastric damage compared to the parent drug alone” value (gastric damage [4]; comment on Table 2) of the same compound?
**A.** significantly reduced the percent incidence of gastric damage

**Q.** And the “Percent Incidence of Gastric Damage” value (gastric damage [4]; intragastric 30 μmol/kg (naproxen and Compound XX 60 μmol/kg), end of experiment)?
**A.** 20%

**Q.** And the “gastric ulcer healing (ulcer surface area)” value (gastric ulcers)?
**A.** significantly greater healing

**Q.** What about the “H2S generated in liver homogenate” value ([5]; 10% (w/v) liver homogenate) of the same compound?
**A.** greater release of H2S from Compound XVII than from TBZ

**Q.** What about the “H2S generated in buffer” value ([5]; potassium phosphate buffer pH 7.4) of the same compound?
**A.** significantly more release of H2S than an equivalent amount of TBZ

**Q.** And the melting point?
**A.** 170 to 172 °C

**Q.** With `Nc1ccc(O)c(C(=O)O)c1` [mesalamine, reference compound] as the compound, how does the “pain perception score after glibenclamide pretreatment” value (visceral pain perception) read?
**A.** did not affect the pain perception

**Q.** What about the “concentration in the colonic lumen” value [6] of the same compound?
**A.** up to 5 mM

**Q.** Which results are given for `COc1ccc2cc([C@H](C)C(=O)O)ccc2c1` [naproxen]?
**A.** exudate PGE2 in the pouch (COX-2 activity) (COX-2): significantly suppressed COX-2 activity; increase in systolic blood pressure [7]: substantial increase in systolic blood pressure
